Details of data set [1]: method as in PMID 25513709. The conditions noted are these: shake flask; cited from earlier work.
A further data set concerns the target T1, ovine COX-1 (Ovis aries, UniProt P05979).
T1 construct: purchased Cayman Chemical Company 700100
T1 sequence (P05979 25-600): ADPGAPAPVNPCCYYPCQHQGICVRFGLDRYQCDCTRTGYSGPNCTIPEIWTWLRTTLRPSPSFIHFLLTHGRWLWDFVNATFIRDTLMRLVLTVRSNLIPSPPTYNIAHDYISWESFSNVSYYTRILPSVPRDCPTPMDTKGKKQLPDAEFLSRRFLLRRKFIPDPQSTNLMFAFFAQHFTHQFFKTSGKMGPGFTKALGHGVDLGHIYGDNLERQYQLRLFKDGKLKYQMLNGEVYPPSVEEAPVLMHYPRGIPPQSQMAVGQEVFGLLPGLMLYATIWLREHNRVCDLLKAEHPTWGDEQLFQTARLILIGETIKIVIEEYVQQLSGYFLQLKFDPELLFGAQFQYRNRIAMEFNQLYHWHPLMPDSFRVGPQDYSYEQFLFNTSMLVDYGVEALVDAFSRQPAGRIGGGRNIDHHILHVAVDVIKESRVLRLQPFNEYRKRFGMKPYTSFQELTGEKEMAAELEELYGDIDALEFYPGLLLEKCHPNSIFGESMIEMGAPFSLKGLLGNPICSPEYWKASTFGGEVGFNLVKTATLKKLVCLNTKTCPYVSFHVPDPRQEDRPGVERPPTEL
Kind of data set: COX Fluorescent Inhibitor Screening Assay Kit, COX-1. In kind it is biochemical. How it is done:
In this work, 100 µM arachidonic acid was applied according to the manufacturer’s instructions for the “COX Fluorescent Inhibitor Screening Assay Kit”.

In a further data set the target is T2, human COX-2 (Homo sapiens, UniProt P35354).
T2 construct: purchased Cayman Chemical Company 700100
T2 sequence (P35354 18-604): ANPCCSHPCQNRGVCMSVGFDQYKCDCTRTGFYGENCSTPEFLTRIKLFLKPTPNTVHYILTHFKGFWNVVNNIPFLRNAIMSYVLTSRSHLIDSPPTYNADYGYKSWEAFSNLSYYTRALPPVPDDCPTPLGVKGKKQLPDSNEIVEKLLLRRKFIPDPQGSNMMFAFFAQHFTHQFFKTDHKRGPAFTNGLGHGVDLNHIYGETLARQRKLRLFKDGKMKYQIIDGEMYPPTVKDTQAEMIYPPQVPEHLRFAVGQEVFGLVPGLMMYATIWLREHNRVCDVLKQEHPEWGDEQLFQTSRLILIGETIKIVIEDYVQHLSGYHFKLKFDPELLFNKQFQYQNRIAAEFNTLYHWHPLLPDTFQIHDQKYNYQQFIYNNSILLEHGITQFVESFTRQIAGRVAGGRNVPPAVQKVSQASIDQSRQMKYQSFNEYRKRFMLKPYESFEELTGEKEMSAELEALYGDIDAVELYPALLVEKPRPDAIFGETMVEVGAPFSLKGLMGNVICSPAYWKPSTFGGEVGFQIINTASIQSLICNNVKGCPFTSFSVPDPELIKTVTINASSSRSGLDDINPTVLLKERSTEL
Kind of data set: COX Fluorescent Inhibitor Screening Assay Kit, COX-2. In kind it is biochemical.

The nature of a further data set: logD7.4 by HPLC method. Type of data set: physicochemical. The conditions noted are these: pH 7.4. From the text: The measured variances in logD7.4 measurements between the two compounds and the two methods lie in the typical range of the method, and both compounds can be seen as equally hydrophobic. This confirms that the replacement of a phenyl ring with a carborane moiety indeed increased the hydrophobicity and could therefore result in an increased BBB penetration of compound 5 compared to flurbiprofen.
In both cases, the eluent consisted of methanol and a 0.01 M phosphate buffer (pH = 7.4); the applied gradient was 0 min at 70% methanol, 10 min at 100% methanol, 20 min at 100% methanol at a flow rate of 0.6 mL/min.

Another data set deals with A375. Kind of data set: MTT cytotoxicity test A375. Type of data set: cell-based, human. The conditions noted are these: A375, 48 h, up to 100 µM, mean ± SD. How it is done: (§1) The used human tumour (i.e., melanoma A375, colon cancer HCT116 and HT29, and glioblastoma LN229 and U251) and rodent tumour (i.e., mouse melanoma B16 and B16–F10; rat glioma C6) cell lines as well as murine transformed non-malignant fibroblast cell line NIH/3T3 differed in their rates of COX-1 and COX-2 expression.
(§2) Cytotoxicity was determined by conducting MTT and CV assays using cell viability as an indicator [67]. All measurements were carried out in triplicates.
In general terms: Formazan colour is commonly taken as a measure of viable cells.

The next data set has as its system HCT116. Kind of data set: MTT cytotoxicity test HCT116. Type of data set: cell-based, human. The conditions noted are these: HCT116, 48 h, up to 100 µM, mean ± SD. How it is done: as §1, §2
In another data set the test system is HT29. Kind of data set: MTT cytotoxicity test HT29. Type of data set: cell-based, human. The conditions noted are these: HT29, 48 h, up to 100 µM, mean ± SD. How it is done: as §1, §2
Another data set concerns LN229. Kind of data set: MTT cytotoxicity test LN229. In kind it is cell-based, human. The conditions noted are these: LN229, 48 h, up to 100 µM, mean ± SD. The procedure:
as §1, §2

The subject of the next data set is U251. Kind of data set: MTT cytotoxicity test U251. The note with it: U251, 48 h, up to 100 µM, mean ± SD. Type of data set: cell-based, human. How it is done:
as §1, §2

A further data set has as its system B16. Kind of data set: MTT cytotoxicity test B16. Type of data set: cell-based, mouse. The conditions noted are these: B16, 48 h, up to 100 µM, mean ± SD. The procedure:
as §1, §2

The subject of a further data set is B16–F10. Kind of data set: MTT cytotoxicity test B16–F10. The conditions noted are these: B16–F10, 48 h, up to 100 µM, mean ± SD. Type of data set: cell-based, mouse. How it is done: as §1, §2
The next data set has as its system NIH/3T3. Kind of data set: MTT cytotoxicity test NIH/3T3. Type of data set: cell-based, mouse. The conditions noted are these: NIH/3T3, 48 h, up to 100 µM, mean ± SD. The procedure:
as §1, §2

The next data set relates to C6. Kind of data set: MTT cytotoxicity test C6. The note with it: C6, 48 h, up to 100 µM, mean ± SD. In kind it is cell-based, rat. The procedure:
as §1, §2

For a further data set, the target named is T3, γ-secretase (Homo sapiens, UniProt P49768).
T3 construct: endogenous in cells; host or cells: HEK293 cells stably overexpressing Swedish-mutant APP (HEK/sw)
Type of data set: cell-based. The note with it: HEK/sw cells. How it is done:
The γ-secretase modulator (GSM) activity of compound 5 was tested on human embryonic kidney (HEK) 293 cells stably overexpressing ”Swedish mutant” APP (HEK/sw), a well-established cell culture model to assess GSM activity. The effect of compound 5 on Aβ production was analysed in comparison to flurbiprofen over a relevant and cell tolerable concentration range (Figure 1).
Nearly confluent (80%) HEK/sw cells were treated with the indicated concentrations of compound 5 or flurbiprofen ((±)-2-fluoro-α-methyl-4-biphenylacetic acid; F8514, Sigma–Aldrich, St. Louis, MO, USA) as described before. Cells treated with DMSO or 1 µM GSM-1 were used as negative and positive controls, respectively. After overnight treatment, the conditioned medium was collected, cleared by centrifugation (10 min, 4 °C, 16,000× g), and the levels of secreted Aβ38, Aβ40, and Aβ42 were analysed using an established Aβ species-specific sandwich immunoassay purchase from Meso Scale Discovery (MSD, Rockville, MD, USA).

[2] abbreviates: enzyme-based assay, result in words.

Where two headings read alike, the source gives them in different places.

The text below walks through data of article PMC8151329, “Modulation of γ-Secretase Activity by a Carborane-Based Flurbiprofen Analogue” (Molecules, 2021).

For `CC(C(=O)O)c1ccc(-c2ccccc2)c(F)c1` (racemic) [Flurbiprofen, (±)-2-fluoro-α-methyl-4-biphenylacetic acid], the logD7.4 in data set [1] is reported as 0.91.
Consider “2-[4-(1,7-Dicarba-closo-dodecaboran-9-yl(12))phenyl]propionic acid [Compound 5]”, for which the “inhibitory activity on COX-1” value at ovine COX-1 (setting [2]) is “No inhibitory activity”. Besides, the IC50 is above 100 µM on ovine COX-1 (ovine COX-1, fluorescence kit, 100 µM arachidonic acid, read-out: IC50 inhibition of COX-1); above 100 µM at human COX-2 (human COX-2, fluorescence kit, 100 µM arachidonic acid, read-out: IC50 inhibition of COX-2); 96 ± 5.9 µM in the data set with A375; above 100 µM in the data set on HCT116; above 100 µM in the data set on HT29; 95 ± 7.1 µM with LN229. Moreover, the IC50 in the data set on U251 turned out to be 77.5 ± 7.2 µM; in the data set on B16, 79 ± 2.4 µM; in the data set on B16–F10 it was 74.7 ± 0.9 µM; in the data set on NIH/3T3, 90 ± 10 µM; in the data set on C6, 92.8 ± 4.8 µM. Further, the “inhibitory activity on COX-2” value on human COX-2 (setting [2]) is “No inhibitory activity”. In addition, the values for the logD7.4 in the data set “logD7.4 by HPLC method” (HPLC method 1: Chromolith Speed ROD RP-18E 50) and in the data set “logD7.4 by HPLC method” (HPLC method 2 (standard conditions): Asahipak ODP-50 4B 4.6 × 50) were 2.00 and 1.86, respectively. The “sum of all measured Aβ species (Aβ38, Aβ40 and Aβ42) vs DMSO control” value on γ-secretase (150 µM) is listed as “did not decrease significantly”. Moreover, the “effect on Aβ42:Aβ40 ratio” value on γ-secretase (extracellular Aβ) is on record as “lowering”. Further, the “ratio of short Aβ38 to longer Aβ42 (γ-secretase processivity)” value at γ-secretase (overnight treatment) is given as “increased”. In addition, the “effect on Aβ42 (ratio of total Aβ)” value at γ-secretase (overnight treatment, conditioned medium) is reported as “clear dose-dependent decrease”.

What is called IC50 is the concentration at which inhibition is half-maximal.
